Results as given in ChEMBL document CHEMBL1140538, “Pyrazolo[1,5-a]pyrimidines as orally available inhibitors of cyclin-dependent kinase 2” (Bioorg Med Chem Lett, 2007).
Values joined by “and” are separate entries in the source; they are usually repeats but may differ in a detail not shown here. Identical values can stand only once.

Legend:
[1] = Inhibition of human CDK2/cyclin A
[2] = target: Glycogen synthase kinase-3 beta (Homo sapiens, UniProt P49841); test: Inhibition of human GSK3-beta
[3] = Effect on cell proliferation assessed as radiolabeled thymidine incorporation in cell-based assay; type: functional; conditions: Homo sapiens
[4] = Inhibition of human MAPK
[5] = Tmax in monkey at 10 mg/kg; type: ADME, organism-based, Macaca mulatta; set-up: dose 10 mg/kg; conditions: rhesus monkey, in vivo
[6] = AUC in mouse at 40 mg/kg; type: ADME, organism-based; set-up: dose 40 mg/kg; conditions: plasma
[7] = Cmax in dog at 5 mg/kg, po; type: ADME, organism-based, Canis lupus familiaris; set-up: dose 5 mg/kg, route oral; conditions: in vivo
[8] = test system: Rhesus monkey; test: Protein binding in monkey; type: ADME, organism-based, Macaca mulatta; conditions: in vivo
[9] = species on record: Rattus norvegicus; test: Protein binding in rat; type: ADME, organism-based; conditions: in vivo
[10] = test system: A2780; test: Antitumor activity against A2780 cells xenografted in mouse at 40 mg/kg, po QD for 10 days; type: functional; conditions: A2780, 240 h
[11] = Cmax in mouse at 40 mg/kg; type: ADME, organism-based; set-up: dose 40 mg/kg; conditions: in vivo
[12] = AUC in dog at 5 mg/kg; type: ADME, organism-based, Canis lupus familiaris; set-up: dose 5 mg/kg; conditions: plasma
[13] = AUC in monkey at 10 mg/kg; type: ADME, organism-based, Macaca mulatta; set-up: dose 10 mg/kg; conditions: rhesus monkey, plasma
[14] = AUC in rat at 10 mg/kg; type: ADME, organism-based; set-up: dose 10 mg/kg; conditions: plasma
[15] = species on record: Mus musculus; test: Protein binding in mouse; type: ADME, organism-based; conditions: in vivo
[16] = Tmax in mouse at 40 mg/kg; type: ADME, organism-based; set-up: dose 40 mg/kg; conditions: in vivo
[17] = species on record: Canis familiaris; test: Protein binding in dog; type: ADME, organism-based, Canis lupus familiaris; conditions: in vivo
[18] = Cmax in rat at 10 mg/kg; type: ADME, organism-based; set-up: dose 10 mg/kg; conditions: in vivo
[19] = species on record: Homo sapiens; test: Protein binding in human; type: ADME, organism-based; conditions: in vivo
[20] = Cmax in monkey at 10 mg/kg; type: ADME, organism-based, Macaca mulatta; set-up: dose 10 mg/kg; conditions: rhesus monkey, in vivo
[21] = Tmax in rat at 10 mg/kg; type: ADME, organism-based; set-up: dose 10 mg/kg; conditions: in vivo

Sequence of Glycogen synthase kinase-3 beta (P49841 whole entry): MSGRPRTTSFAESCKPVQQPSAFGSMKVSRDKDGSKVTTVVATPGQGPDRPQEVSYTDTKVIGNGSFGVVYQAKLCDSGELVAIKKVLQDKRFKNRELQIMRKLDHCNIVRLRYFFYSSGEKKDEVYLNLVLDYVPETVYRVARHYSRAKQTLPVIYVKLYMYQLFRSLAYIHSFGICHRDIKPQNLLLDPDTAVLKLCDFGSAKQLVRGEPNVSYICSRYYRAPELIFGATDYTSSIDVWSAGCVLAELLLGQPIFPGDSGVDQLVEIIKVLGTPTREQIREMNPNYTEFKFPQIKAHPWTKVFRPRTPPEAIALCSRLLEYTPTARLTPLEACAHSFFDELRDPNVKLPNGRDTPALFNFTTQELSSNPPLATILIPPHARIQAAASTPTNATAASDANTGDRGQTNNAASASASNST

Structure (SMILES)	IC50 [1]	IC50 [2] [nM]	IC50 [3] [nM]	other results
Cc1cc(NCc2cccnc2)n2ncc(Br)c2n1	60 nM	3530	1800	–
CNc1cc(-c2ccccc2Cl)nc2c(Br)cnn12	20 nM	247	1800	–
CC(O)c1cc(NCc2cccnc2)n2ncc(Br)c2n1 (stereo unspecified)	38 nM	500	1400	–
Nc1cc(-c2ccccc2)nc2c(Br)cnn12	250 nM	–	–	–
Brc1cnn2c(NCc3cccnc3)cc(-c3ccco3)nc12	8 nM	310	15200	–
FC(F)(F)Cc1cnn2c(NCc3cccnc3)cc(-c3ccccc3)nc12	710 nM	–	–	–
N#CCc1cnn2c(NCc3cccnc3)cc(-c3ccccc3)nc12	49 nM	1100	–	IC50 [4]: 1330 nM
Fc1ccccc1-c1cc(Nc2ccccc2)n2ncc(Br)c2n1	408 nM	13300	–	–
Clc1cccc(-c2cc(NCc3ccncc3)n3nccc3n2)c1Cl	500 nM	–	–	–
c1ccc(-c2cc(NCc3cccnc3)n3ncc(C4CC4)c3n2)cc1	71 nM	–	–	–
FC(F)(F)c1cnn2c(NCc3cccnc3)cc(-c3ccccc3)nc12	95 nM	–	–	–
Fc1ccccc1-c1cc(NCOc2cccnc2)n2ncc(Br)c2n1	13 nM	130	210	Tmax [5]: 3.3 h; AUC [6]: 17.9 µM·h; Cmax [7]: 2580 nM; Activity [8]: 89%; Activity [9]: 85%; inhibition in vivo at 40 mg/kg [10]: 96%; Cmax [11]: 6.81 µM; AUC [12]: 2.44 µM·h; AUC [13]: 43 µM·h; AUC [14]: 16.4 µM·h; Activity [15]: 90%; Tmax [16]: 2 h; Activity [17]: 93%; Cmax [18]: 2290 nM; Activity [19]: 95%; Cmax [20]: 3.2 µM; Tmax [21]: 2 h
OCCSc1cnn2c(NCc3cccnc3)cc(-c3ccccc3)nc12	30 nM	–	–	–
COc1cnn2c(NCc3cccnc3)cc(-c3ccccc3)nc12	1100 nM	–	–	–
c1ccc(-c2cc(NCc3cccnc3)n3nccc3n2)cc1	250 nM	–	–	–
C=Cc1cnn2c(NCc3cccnc3)cc(-c3ccccc3)nc12	90 nM	–	–	–
OC(c1cnn2c(NCc3cccnc3)cc(-c3ccccc3)nc12)C(F)(F)F (stereo unspecified)	3400 nM	–	–	–
CC(C)c1cnn2c(NCc3cccnc3)cc(-c3ccccc3)nc12	370 nM	–	–	–
COc1cc(NCc2cccnc2)n2ncc(Br)c2n1	35 nM	1410	2000	–
Fc1ccccc1-c1cc(NCc2ccccc2)n2ncc(Br)c2n1	300 nM	15200	–	–
Brc1cnn2c(NCc3cccnc3)cc(-c3cccs3)nc12	13 nM	480	750	–
Clc1ccccc1-c1cc(NCc2cccnc2)n2ncc(Br)c2n1	4 nM and 3 nM	54	500	–
Brc1cnn2c(NCc3cccnc3)cc(N3CCNCC3)nc12	210 nM	–	–	–
CC(Nc1cc(-c2ccccc2)nc2c(Br)cnn12)c1cccnc1 (stereo unspecified)	3000 nM	–	–	–
Brc1cnn2c(NCOc3cccnc3)cc(-c3ccccc3)nc12	34 nM	600	140	–
CC(=O)c1cnn2c(NCc3cccnc3)cc(-c3ccccc3)nc12	> 50000 nM	–	–	–
CCOC(=O)c1cc(NCc2cccnc2)n2ncc(Br)c2n1	89 nM	790	2900	–

Structure (SMILES)	IC50 [1]	IC50 [2] [nM]	IC50 [3] [nM]	other results
CNc1cc(NCc2cccnc2)n2ncc(Br)c2n1	43 nM	4600	1200	–
c1ccc(Cc2cnn3c(NCc4cccnc4)cc(-c4ccccc4)nc23)cc1	16000 nM	–	–	–
C#CCc1cnn2c(NCc3cccnc3)cc(-c3ccccc3)nc12	840 nM	–	–	–
CS(=O)(=O)c1ccc(Nc2cc(-c3ccccc3Cl)nc3c(Br)cnn23)cc1	350 nM	450	900	–
CCc1cnn2c(NCc3cccnc3)cc(-c3ccccc3)nc12	8 nM	2800	–	IC50 [4]: 2000 nM
Brc1cnn2c(NCc3cccnc3)cc(C3CCNCC3)nc12	16 nM	410	160	–
CCc1cc(NCc2cccnc2)n2ncc(Br)c2n1	18 nM	920	520	–
c1ccc(-c2cc(NCc3cccnc3)n3ncc(-c4ccccc4)c3n2)cc1	> 50000 nM	–	–	–
CSc1cnn2c(NCc3cccnc3)cc(-c3ccccc3)nc12	7 nM	1800	–	IC50 [4]: 900 nM
CC(=O)NCCSc1cnn2c(NCc3cccnc3)cc(-c3ccccc3)nc12	2 nM	34	–	IC50 [4]: 12000 nM
Brc1cnn2c(NCc3cccnc3)cc(C3CCCCC3)nc12	4 nM	27	200	–
CN(C)Cc1cnn2c(NCc3cccnc3)cc(-c3ccccc3)nc12	34000 nM	–	–	–
OCc1cnn2c(NCc3cccnc3)cc(-c3ccccc3)nc12	2170 nM	–	–	–
Clc1ccccc1-c1cc(NC2CC2)n2ncc(Br)c2n1	825 nM	–	–	–
Brc1cnn2c(NCc3cccnc3)cc(C3CC3)nc12	45 nM	1130	1500	–
Brc1cnn2c(NCc3cccnc3)cc(C3CCCNC3)nc12 (stereo unspecified)	8 nM	180	60	–
CCCCc1cnn2c(NCc3cccnc3)cc(-c3ccccc3)nc12	1200 nM	–	–	–
CCCNc1cc(-c2ccccc2Cl)nc2c(Br)cnn12	163 nM	–	–	–
Cc1cnn2c(NCc3cccnc3)cc(-c3ccccc3)nc12	72 nM	–	–	IC50 [4]: 1400 nM
C#Cc1cnn2c(NCc3cccnc3)cc(-c3ccccc3)nc12	48 nM	9820	–	IC50 [4]: 7480 nM
CCCc1cnn2c(NCc3cccnc3)cc(-c3ccccc3)nc12	890 nM	–	–	–
Clc1ccccc1-c1cc(NCOc2cccnc2)n2ncc(Br)c2n1	11 nM	35	170	–
CC(C)c1cc(NCc2cccnc2)n2ncc(Br)c2n1	17 nM	420	950	–
CSc1cc(NCc2cccnc2)n2ncc(Br)c2n1	38 nM	1180	990	–
Cc1ccccc1-c1cc(NCc2ccc[n+]([O-])c2)n2ncc(Br)c2n1	49 nM	–	–	–
O=[N+]([O-])c1cnn2c(NCc3cccnc3)cc(-c3ccccc3)nc12	> 50000 nM	–	–	–
Brc1cnn2c(NCc3cccnc3)cc(-c3ccccc3)nc12	11 nM	570	–	IC50 [4]: 370 nM
